This is an account of results in patent US9315503B2, “Kinase inhibitors” (CHIESI FARMACEUTICI S.p.A., priority 2011, dated 2016).

pIC50: −log10 of the molar value. Counter-ions that a name gives are not always drawn. Some results are limits rather than exact numbers.

The target of one experiment is T1, p38alpha (Homo sapiens, UniProt Q16539).
T1 construct: purchased Invitrogen PV3304
Put plainly: P38Alpha enzyme inhibition assay (Alphascreen kinase activity assay). Format: biochemical. As to conditions: 100 pM p38alpha, 250 μM ATP, 2 hours pre-incubation at 25° C., read-out: p38α inhibition (IC50 values). A digest of the protocol: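 AlphaScreen read-out: after an EDTA stop, an anti-phospho-ATF2 antibody with Protein A acceptor and donor beads measured substrate phosphorylation. Compounds sat 2 h at 25°C with 100 pM p38α and 0.3 µg/ml ATF-2 fusion protein (pH 7.5, 1% DMSO) before 250 µM ATP was added for 1 h. IC50 from dose-response.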

Experiment [1] has as its system LPS-stimulated TNFα release from PBMCs. In words: LPS-stimulated PBMC TNFα release assay. Format: cell-based. As to conditions: inhibition of TNFα release, human PBMCs, LPS 10 ng/ml, 18 h, ELISA, read-out: p38α inhibition (IC50 values). The procedure, abridged:
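TNFα in supernatants measured by ELISA after 18 h LPS (10 ng/ml) challenge of human PBMCs given 1 h compound pretreatment at 37 °C in medium with 1% FBS. Percent inhibition versus control release fitted to dose-response curves for IC50; at least three independent runs.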
On the technique in general: An ELISA detects its analyte on a solid surface through an enzyme-linked reagent.

T1 sequence (Q16539 whole entry): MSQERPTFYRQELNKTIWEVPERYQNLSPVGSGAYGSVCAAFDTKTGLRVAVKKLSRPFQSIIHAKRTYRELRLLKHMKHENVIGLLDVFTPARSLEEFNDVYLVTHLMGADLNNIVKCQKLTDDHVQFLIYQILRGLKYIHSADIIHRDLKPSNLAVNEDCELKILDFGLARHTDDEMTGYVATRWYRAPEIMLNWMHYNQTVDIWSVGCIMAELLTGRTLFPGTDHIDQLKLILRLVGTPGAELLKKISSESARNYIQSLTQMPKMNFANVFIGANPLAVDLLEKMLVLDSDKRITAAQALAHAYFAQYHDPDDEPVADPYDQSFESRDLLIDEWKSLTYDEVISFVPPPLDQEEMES

Take `CC(C)(C)c1cc(NC(=O)N[C@H]2CC[C@@H](Oc3ccc4nnc(N5CCCCC5)n4c3)c3ccccc32)n(-c2cccc(CN3CCN(CCO)CC3)c2)n1` [Example 50, 1-(5-tert-Butyl-2-{3-[4-(2-hydroxy-ethyl)-piperazin-1-ylmethyl]-phenyl}-2H-pyrazol-3-yl)-3-[(1S,4R)-4-(3-piperidin-1-yl-[1,2,4]triazolo[4,3-a]pyridin-6-yloxy)-1,2,3,4-tetrahydro-naphthalen-1-yl]-urea]: the pIC50 (on p38alpha; in experiment [1]) was above 8.00 throughout.

As for `CC(C)(C)c1cc(NC(=O)N[C@H]2CC[C@@H](Oc3ccc4nnc(N5CCCCC5)n4c3)c3ccccc32)n(-c2cccc(CN3CCC(O)CC3)c2)n1` [Example 52, 1-{5-tert-Butyl-2-[3-(4-hydroxy-piperidin-1-ylmethyl)-phenyl]-2H-pyrazol-3-yl}-3-[(1S,4R)-4-(3-piperidin-1-yl-[1,2,4]triazolo[4,3-a]pyridin-6-yloxy)-1,2,3,4-tetrahydro-naphthalen-1-yl]-urea], the pIC50 (at p38alpha; in experiment [1]) was above 8.00 in each case.

For the compound `CC(C)(C)c1cc(NC(=O)N[C@H]2CC[C@@H](Oc3ccc4nnc(N5CCCCC5)n4c3)c3ccccc32)n(-c2cccc(SCCO)c2)n1` [Example 53, 1-{5-tert-Butyl-2-[3-(2-hydroxy-ethylsulfanyl)-phenyl]-2H-pyrazol-3-yl}-3-[(1S,4R)-4-(3-piperidin-1-yl-[1,2,4]triazolo[4,3-a]pyridin-6-yloxy)-1,2,3,4-tetrahydro-naphthalen-1-yl]-urea], the pIC50 (on p38alpha; in experiment [1]) was above 8.00 each time.

With `Cc1ccc(-n2nc(C(C)(C)C)cc2NC(=O)N[C@H]2CC[C@@H](Oc3ccc4nnc(N5CCC(CO)CC5)n4c3)c3ccccc32)cc1` [Example 54, 1-(5-tert-Butyl-2-p-tolyl-2H-pyrazol-3-yl)-3-{(1S,4R)-4-[3-(4-hydroxymethyl-piperidin-1-yl)-[1,2,4]triazolo[4,3-a]pyridin-6-yloxy]-1,2,3,4-tetrahydro-naphthalen-1-yl}-urea], the negative-log IC50 (pIC50) (at p38alpha; in experiment [1]) was above 8.00 throughout.

`Cc1ccc(-n2nc(C(C)(C)C)cc2NC(=O)N[C@H]2CC[C@H](Oc3ccc4nnc(N5CCCCC5)n4c3)c3ccccc32)cc1` [Example 55, 1-(5-tert-Butyl-2-p-tolyl-2H-pyrazol-3-yl)-3-[(1S,4S)-4-(3-piperidin-1-yl-[1,2,4]triazolo[4,3-a]pyridin-6-yloxy)-1,2,3,4-tetrahydro-naphthalen-1-yl]-urea]: the pIC50 (at p38alpha; in experiment [1]) was above 8.00 throughout.

As to `CC(C)(C)c1cc(NC(=O)N[C@H]2CC[C@@H](Oc3ccc4nnc(N5CCC(O)CC5)n4c3)c3ccccc32)n(-c2ccc(CO)cc2)n1` [Example 57, 1-[5-tert-Butyl-2-(4-hydroxymethyl-phenyl)-2H-pyrazol-3-yl]-3-{(1S,4R)-4-[3-(4-hydroxy-piperidin-1-yl)-[1,2,4]triazolo[4,3-a]pyridin-6-yloxy]-1,2,3,4-tetrahydro-naphthalen-1-yl}-urea], the values for the pIC50 (at p38alpha; in experiment [1]) were above 8.00 and 7.00 to 8.00, respectively.

Regarding `Cc1ccc(-n2nc(C(C)(C)C)cc2NC(=O)N[C@H]2CC[C@@H](Oc3ccc4nnc([C@@H]5CCCN5C(C)C)n4c3)c3ccccc32)cc1` [Example 58, 1-(5-tert-Butyl-2-p-tolyl-2H-pyrazol-3-yl)-3-{(1S,4R)-4-[3-((S)-1-isopropyl-pyrrolidin-2-yl)-[1,2,4]triazolo[4,3-a]pyridin-6-yloxy]-1,2,3,4-tetrahydro-naphthalen-1-yl}-urea], the negative logarithm of the IC50 (pIC50) (on p38alpha; in experiment [1]) was above 8.00 in each case.

Consider `Cc1ccc(-n2nc(C(C)(C)C)cc2NC(=O)N[C@H]2CC[C@@H](Oc3ccc4nnc(N(C)C)n4c3)c3ccccc32)cc1` [Example 59, 1-(5-tert-Butyl-2-p-tolyl-2H-pyrazol-3-yl)-3-[(1S,4R)-4-(3-dimethylamino-[1,2,4]triazolo[4,3-a]pyridin-6-yloxy)-1,2,3,4-tetrahydro-naphthalen-1-yl]-urea], for which the pIC50 (on p38alpha; in experiment [1]) was above 8.00 throughout.

As to `Cc1ccc(-n2nc(C(C)(C)C)cc2NC(=O)N[C@H]2CC[C@@H](Oc3ccc4nnc([C@H]5CCCN5C)n4c3)c3ccccc32)cc1` [Example 60, 1-(5-tert-Butyl-2-p-tolyl-2H-pyrazol-3-yl)-3-{(1S,4R)-4-[3-((R)-1-methyl-pyrrolidin-2-yl)-[1,2,4]triazolo[4,3-a]pyridin-6-yloxy]-1,2,3,4-tetrahydro-naphthalen-1-yl}-urea], the pIC50 (on p38alpha; in experiment [1]) was above 8.00 in each case.

On to `CCN1CCC[C@H]1c1nnc2ccc(O[C@@H]3CC[C@H](NC(=O)Nc4cc(C(C)(C)C)nn4-c4ccc(C)cc4)c4ccccc43)cn12` [Example 61, 1-(5-tert-Butyl-2-p-tolyl-2H-pyrazol-3-yl)-3-{(1S,4R)-4-[3-((S)-1-ethyl-pyrrolidin-2-yl)-[1,2,4]triazolo[4,3-a]pyridin-6-yloxy]-1,2,3,4-tetrahydro-naphthalen-1-yl}-urea], for which the pIC50 (at p38alpha; in experiment [1]) was above 8.00 each time.

For `Cc1ccc(-n2nc(C(C)(C)C)cc2NC(=O)N[C@H]2CC[C@@H](Oc3ccc4nnc([C@@H]5CCCCN5C)n4c3)c3ccccc32)cc1` [Example 62, 1-(5-tert-Butyl-2-p-tolyl-2H-pyrazol-3-yl)-3-{(1S,4R)-4-[3-((S)-1-methyl-piperidin-2-yl)-[1,2,4]triazolo[4,3-a]pyridin-6-yloxy]-1,2,3,4-tetrahydro-naphthalen-1-yl}-urea], the negative logarithm of the IC50 (pIC50) (on p38alpha; in experiment [1]) was above 8.00 throughout.

As to `Cc1ccc(-n2nc(C(C)(C)C)cc2NC(=O)N[C@H]2CC[C@@H](Oc3ccc4nnc(N5CCC[C@H](O)C5)n4c3)c3ccccc32)cc1` [Example 63, 1-(5-tert-Butyl-2-p-tolyl-2H-pyrazol-3-yl)-3-{(1S,4R)-4-[3-((S)-3-hydroxy-piperidin-1-yl)-[1,2,4]triazolo[4,3-a]pyridin-6-yloxy]-1,2,3,4-tetrahydro-naphthalen-1-yl}-urea], the pIC50 (on p38alpha; in experiment [1]) was above 8.00 throughout.

Consider `Cc1ccc(-n2nc(C(C)(C)C)cc2NC(=O)N[C@H]2CC[C@@H](Oc3ccc4nnc(N5CCC[C@@H](O)C5)n4c3)c3ccccc32)cc1` [Example 64, 1-(5-tert-Butyl-2-p-tolyl-2H-pyrazol-3-yl)-3-{(1S,4R)-4-[3-((R)-3-hydroxy-piperidin-1-yl)-[1,2,4]triazolo[4,3-a]pyridin-6-yloxy]-1,2,3,4-tetrahydro-naphthalen-1-yl}-urea], for which the pIC50 (on p38alpha; in experiment [1]) was above 8.00 in each case.

With `CN1CCCC[C@H]1c1nnc2ccc(O[C@@H]3CC[C@H](NC(=O)Nc4cc(C(C)(C)C)nn4-c4ccc(CO)cc4)c4ccccc43)cn12` [Example 65, 1-[5-tert-Butyl-2-(4-hydroxymethyl-phenyl)-2H-pyrazol-3-yl]-3-{(1S,4R)-4-[3-((S)-1-methyl-piperidin-2-yl)-[1,2,4]triazolo[4,3-a]pyridin-6-yloxy]-1,2,3,4-tetrahydro-naphthalen-1-yl}-urea, partial formate salt], the pIC50 (on p38alpha; in experiment [1]) was above 8.00 throughout.

One may read the pIC50 as the IC50 on a negative log10 scale, so that one unit is a factor of ten.
